Assay results published in ChEMBL document CHEMBL5390257, “Fused Tetrahydroquinolines Are Interfering with Your Assay” (J Med Chem, 2023).

How the values were obtained:
[1] = molecular target: T1, Tyrosine-protein phosphatase non-receptor type 1 (Homo sapiens) (UniProt P18031); test: Inhibition of PTP1B (unknown origin) using pNPP as substrate assessed as fraction of control at 100 uM by high-throughput screening assay relative to control
T1 sequence (whole entry): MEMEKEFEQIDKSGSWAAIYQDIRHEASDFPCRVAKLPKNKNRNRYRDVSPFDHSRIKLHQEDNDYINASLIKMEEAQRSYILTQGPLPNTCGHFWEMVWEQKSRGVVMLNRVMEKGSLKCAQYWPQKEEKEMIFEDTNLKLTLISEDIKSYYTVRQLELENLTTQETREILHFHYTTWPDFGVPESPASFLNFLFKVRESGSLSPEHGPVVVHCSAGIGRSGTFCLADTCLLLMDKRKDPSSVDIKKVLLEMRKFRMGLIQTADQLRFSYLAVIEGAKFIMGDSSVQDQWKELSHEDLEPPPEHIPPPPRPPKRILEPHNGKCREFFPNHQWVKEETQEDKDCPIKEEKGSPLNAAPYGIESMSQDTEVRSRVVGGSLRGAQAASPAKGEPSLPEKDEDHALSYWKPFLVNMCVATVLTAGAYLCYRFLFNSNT

[2] = molecular target: T2, Tyrosine-protein phosphatase non-receptor type 7 (Homo sapiens) (UniProt P35236); test: Inhibition of PTPN7 (unknown origin) using pNPP as substrate assessed as fraction of control at 100 uM by high-throughput screening assay relative to control
T2 sequence (whole entry): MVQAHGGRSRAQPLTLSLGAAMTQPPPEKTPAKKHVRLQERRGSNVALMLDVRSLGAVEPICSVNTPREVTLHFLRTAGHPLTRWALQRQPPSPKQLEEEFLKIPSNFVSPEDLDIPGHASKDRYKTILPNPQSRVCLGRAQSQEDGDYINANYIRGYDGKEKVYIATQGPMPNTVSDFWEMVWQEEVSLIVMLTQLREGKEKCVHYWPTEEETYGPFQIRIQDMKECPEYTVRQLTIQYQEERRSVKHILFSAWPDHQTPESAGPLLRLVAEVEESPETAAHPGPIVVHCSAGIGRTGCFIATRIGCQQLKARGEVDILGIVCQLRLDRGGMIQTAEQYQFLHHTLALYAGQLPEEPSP

[3] = molecular target: T3, Receptor-type tyrosine-protein phosphatase R (Homo sapiens) (UniProt Q15256); test: Inhibition of PTPRR (unknown origin) using pNPP as substrate assessed as fraction of control at 100 uM by high-throughput screening assay relative to control
T3 sequence (whole entry): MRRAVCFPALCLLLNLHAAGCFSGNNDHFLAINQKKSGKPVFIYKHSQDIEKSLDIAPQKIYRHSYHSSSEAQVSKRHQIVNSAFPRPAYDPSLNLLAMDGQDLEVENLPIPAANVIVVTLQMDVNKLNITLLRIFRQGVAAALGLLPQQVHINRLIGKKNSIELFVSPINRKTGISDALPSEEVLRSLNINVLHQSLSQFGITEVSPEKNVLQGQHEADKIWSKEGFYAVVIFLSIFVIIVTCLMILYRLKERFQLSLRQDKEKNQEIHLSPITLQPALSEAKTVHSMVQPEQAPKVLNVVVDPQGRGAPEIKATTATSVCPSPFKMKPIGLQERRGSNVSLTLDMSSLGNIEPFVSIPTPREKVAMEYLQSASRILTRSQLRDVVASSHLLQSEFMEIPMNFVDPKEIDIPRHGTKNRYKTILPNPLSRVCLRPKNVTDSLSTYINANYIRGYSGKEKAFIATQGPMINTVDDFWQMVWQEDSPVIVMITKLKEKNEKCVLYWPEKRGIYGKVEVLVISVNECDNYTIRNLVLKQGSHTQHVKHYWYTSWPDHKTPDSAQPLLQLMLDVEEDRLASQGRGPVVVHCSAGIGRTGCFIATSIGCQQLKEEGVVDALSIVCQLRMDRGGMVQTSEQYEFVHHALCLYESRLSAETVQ

[4] = molecular target: T4, Tyrosine-protein phosphatase non-receptor type 5 (Homo sapiens) (UniProt P54829); test: Inhibition of PTPN5 (unknown origin) using pNPP as substrate assessed as fraction of control at 100 uM by high-throughput screening assay relative to control
T4 sequence (whole entry): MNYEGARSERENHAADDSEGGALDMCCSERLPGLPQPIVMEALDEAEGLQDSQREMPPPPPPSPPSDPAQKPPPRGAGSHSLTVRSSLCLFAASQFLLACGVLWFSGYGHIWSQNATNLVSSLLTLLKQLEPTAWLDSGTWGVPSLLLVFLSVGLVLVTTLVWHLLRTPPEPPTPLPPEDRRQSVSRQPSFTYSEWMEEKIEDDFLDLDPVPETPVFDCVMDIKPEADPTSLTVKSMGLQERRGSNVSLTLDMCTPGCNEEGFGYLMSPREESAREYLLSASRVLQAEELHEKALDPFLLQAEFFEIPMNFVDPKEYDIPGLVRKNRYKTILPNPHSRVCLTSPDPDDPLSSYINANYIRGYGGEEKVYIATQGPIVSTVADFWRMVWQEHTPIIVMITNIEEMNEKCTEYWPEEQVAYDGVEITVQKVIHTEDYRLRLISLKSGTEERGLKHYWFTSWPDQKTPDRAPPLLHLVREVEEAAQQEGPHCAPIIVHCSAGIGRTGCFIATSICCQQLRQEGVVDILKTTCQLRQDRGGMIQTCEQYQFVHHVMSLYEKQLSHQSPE

[5] = Binding affinity to Yellow fever virus 17D recombinant NS5 N-terminal capping enzyme domain expressed in Escherichia coli BL21 (DE3) assessed as inhibition constant incubated for 1 hr by high-throughput screening fluorescence polarization assay
[6] = Inhibition of MurA (unknown origin) preincubated for 30 mins followed by substrate addition and measured after 8 mins by spectrometric analysis; design: species or system Bacteria
[7] = molecular target: T5, Tyrosine-protein phosphatase non-receptor type 1 (Homo sapiens, UniProt P18031); test: Inhibition of human recombinant PTP1B using OMFP as substrate incubated for 60 mins by fluorescence based analysis
T5 sequence (P18031 whole entry): T1 sequence (whole entry)

[8] = molecular target: T6, M-phase inducer phosphatase 2 (Homo sapiens, UniProt P30305); test: Inhibition of full-length 6His/GST-tagged recombinant human CDC25B using OMFP as substrate incubated for 60 mins by fluorescence based analysis
T6 sequence (P30305 whole entry): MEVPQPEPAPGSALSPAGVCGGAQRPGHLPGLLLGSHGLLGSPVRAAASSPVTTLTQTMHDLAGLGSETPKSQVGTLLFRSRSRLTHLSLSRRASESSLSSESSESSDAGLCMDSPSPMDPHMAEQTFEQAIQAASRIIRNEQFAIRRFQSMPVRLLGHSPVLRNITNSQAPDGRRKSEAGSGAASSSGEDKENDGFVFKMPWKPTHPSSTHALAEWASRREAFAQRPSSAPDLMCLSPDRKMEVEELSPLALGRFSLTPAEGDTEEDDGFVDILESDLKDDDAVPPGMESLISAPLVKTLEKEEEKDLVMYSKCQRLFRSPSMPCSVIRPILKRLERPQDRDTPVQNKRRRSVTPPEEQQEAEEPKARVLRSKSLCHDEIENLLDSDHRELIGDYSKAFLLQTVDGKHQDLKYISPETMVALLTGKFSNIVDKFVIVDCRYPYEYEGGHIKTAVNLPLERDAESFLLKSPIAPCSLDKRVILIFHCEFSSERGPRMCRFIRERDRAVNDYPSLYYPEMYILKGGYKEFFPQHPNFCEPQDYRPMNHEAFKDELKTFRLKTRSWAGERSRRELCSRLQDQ

[9] = molecular target: Diacylglycerol kinase alpha (Sus scrofa, UniProt P20192); test: Inhibition of GST-fused pig DGK alpha expressed in Sf9 insect cells incubated for 2 hrs by HTS ADP-Glo DGK assay
[10] = molecular target: SH3 and multiple ankyrin repeat domains protein 3 (Mus musculus, UniProt Q4ACU6); test: Binding affinity to His-tagged murine Shank3 PDZ domain assessed as inhibition constant by fluorescence polarization assay
[11] = Inhibition of Helicobacter pylori recombinant IspD domain of IspDF by HTS based photometric assay
[12] = molecular target: Serine/threonine-protein kinase PLK1 (Homo sapiens, UniProt P53350); test: Inhibition of GST-tagged recombinant PLK1 (unknown origin) using 5-carboxyfluorescein-KKRNRRLSVA-OH peptide as substrate incubated for 3 hrs in presence of ATP by HTS TR-FRET assay
Sequence of Serine/threonine-protein kinase PLK1 (P53350 whole entry): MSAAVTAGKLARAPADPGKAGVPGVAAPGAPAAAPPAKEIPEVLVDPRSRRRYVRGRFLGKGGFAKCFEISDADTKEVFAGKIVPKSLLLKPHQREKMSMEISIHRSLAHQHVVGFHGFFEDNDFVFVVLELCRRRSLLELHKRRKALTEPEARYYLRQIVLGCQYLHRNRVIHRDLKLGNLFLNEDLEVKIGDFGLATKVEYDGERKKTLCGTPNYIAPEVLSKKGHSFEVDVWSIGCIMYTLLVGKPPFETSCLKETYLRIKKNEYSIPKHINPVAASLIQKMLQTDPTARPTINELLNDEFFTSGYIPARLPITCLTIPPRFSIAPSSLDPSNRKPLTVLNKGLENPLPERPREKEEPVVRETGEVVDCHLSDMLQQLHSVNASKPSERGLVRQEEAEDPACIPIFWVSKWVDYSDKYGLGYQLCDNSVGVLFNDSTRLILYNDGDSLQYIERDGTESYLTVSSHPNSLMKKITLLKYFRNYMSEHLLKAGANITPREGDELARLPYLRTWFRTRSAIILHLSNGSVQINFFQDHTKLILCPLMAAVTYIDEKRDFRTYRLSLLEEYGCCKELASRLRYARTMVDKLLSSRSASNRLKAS

Sequence of SH3 and multiple ankyrin repeat domains protein 3 (Q4ACU6 whole entry, the tested form may be a part): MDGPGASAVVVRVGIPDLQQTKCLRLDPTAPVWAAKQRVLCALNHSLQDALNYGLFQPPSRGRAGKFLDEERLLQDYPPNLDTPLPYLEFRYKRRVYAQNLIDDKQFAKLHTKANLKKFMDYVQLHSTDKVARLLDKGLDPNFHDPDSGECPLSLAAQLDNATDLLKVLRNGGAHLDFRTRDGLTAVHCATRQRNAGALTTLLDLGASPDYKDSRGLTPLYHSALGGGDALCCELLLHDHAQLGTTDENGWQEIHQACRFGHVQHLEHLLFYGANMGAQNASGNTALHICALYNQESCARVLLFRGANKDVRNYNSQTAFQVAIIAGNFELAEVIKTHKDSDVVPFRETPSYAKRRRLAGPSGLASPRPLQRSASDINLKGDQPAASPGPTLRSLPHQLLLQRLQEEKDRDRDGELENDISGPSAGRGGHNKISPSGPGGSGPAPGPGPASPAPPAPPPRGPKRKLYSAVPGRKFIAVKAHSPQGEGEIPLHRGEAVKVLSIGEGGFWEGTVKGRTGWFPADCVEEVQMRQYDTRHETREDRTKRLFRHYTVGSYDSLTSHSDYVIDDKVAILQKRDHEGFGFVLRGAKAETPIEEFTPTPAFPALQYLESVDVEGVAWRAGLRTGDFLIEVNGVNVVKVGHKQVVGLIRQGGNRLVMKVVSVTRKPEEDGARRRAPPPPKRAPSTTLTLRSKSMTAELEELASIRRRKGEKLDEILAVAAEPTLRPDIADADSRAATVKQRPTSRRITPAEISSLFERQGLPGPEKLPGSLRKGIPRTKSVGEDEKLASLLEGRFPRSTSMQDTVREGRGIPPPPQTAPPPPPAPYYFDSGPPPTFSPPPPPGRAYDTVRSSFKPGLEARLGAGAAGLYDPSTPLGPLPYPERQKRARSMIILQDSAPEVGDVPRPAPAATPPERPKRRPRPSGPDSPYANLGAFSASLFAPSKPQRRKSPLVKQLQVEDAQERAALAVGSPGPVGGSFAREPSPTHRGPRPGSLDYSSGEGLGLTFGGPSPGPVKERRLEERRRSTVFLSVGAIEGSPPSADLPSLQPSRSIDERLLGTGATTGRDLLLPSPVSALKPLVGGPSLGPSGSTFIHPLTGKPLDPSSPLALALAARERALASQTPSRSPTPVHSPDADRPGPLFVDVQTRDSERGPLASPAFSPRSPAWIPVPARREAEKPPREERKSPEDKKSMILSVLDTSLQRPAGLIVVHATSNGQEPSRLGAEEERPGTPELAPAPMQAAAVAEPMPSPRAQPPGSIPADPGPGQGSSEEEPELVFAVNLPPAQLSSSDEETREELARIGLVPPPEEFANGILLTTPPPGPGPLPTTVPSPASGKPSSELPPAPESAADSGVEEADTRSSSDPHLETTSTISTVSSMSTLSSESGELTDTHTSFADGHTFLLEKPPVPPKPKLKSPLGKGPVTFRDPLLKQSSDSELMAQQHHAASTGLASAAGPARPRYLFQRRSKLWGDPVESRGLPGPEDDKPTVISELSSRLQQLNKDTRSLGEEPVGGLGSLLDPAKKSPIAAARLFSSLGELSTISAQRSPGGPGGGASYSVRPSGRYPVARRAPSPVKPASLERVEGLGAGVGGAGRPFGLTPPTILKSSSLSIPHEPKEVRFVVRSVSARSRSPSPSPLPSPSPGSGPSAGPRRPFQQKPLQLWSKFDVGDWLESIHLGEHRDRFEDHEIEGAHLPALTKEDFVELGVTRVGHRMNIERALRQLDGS
Sequence of Diacylglycerol kinase alpha (P20192 whole entry, the tested form may be a part): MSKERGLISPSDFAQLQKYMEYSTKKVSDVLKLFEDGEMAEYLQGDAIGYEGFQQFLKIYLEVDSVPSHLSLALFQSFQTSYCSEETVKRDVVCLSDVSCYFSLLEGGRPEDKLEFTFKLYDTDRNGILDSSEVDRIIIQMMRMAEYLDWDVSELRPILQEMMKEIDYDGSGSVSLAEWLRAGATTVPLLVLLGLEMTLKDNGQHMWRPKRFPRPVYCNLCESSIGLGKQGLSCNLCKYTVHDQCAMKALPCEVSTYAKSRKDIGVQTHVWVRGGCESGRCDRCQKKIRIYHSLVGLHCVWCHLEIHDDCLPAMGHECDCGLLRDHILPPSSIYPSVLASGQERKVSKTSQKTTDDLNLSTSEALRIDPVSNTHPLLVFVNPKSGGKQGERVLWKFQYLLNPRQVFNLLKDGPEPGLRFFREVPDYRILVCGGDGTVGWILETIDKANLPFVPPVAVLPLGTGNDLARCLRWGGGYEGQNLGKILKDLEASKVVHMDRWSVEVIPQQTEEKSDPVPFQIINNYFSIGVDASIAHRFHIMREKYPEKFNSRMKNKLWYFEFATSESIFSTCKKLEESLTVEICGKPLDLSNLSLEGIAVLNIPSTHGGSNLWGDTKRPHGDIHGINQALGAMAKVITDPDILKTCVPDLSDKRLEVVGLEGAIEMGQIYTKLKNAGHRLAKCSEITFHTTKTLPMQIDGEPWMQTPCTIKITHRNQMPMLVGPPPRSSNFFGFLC

Molecule `O=C(O)C1Nc2c(F)cccc2C2C=CCC12` (stereo not drawn) has a fold change (FC) [1] of 0.23, a fold change (FC) [2] of 0.41 and a fold change (FC) [3] of 0.08. It also gave a fold change (FC) [4] of 0.73.

`O=C(O)C1Nc2c(I)cccc2C2C=CCC12` (stereo not drawn) gave a Ki [5] of 7.1 µM.

With `O=C(O)C1Nc2ccc(F)c(Cl)c2C2C=CCC12` (stereo not drawn) the IC50 [6] was < 5 µM.

In the case of `CN(C)C(=O)c1ccc2c(c1)C1C=CCC1C(C(=O)O)N2` (stereo not drawn), the IC50 [6] is reported as < 5 µM.

With `COC(=O)c1cccc2c1NC(C(=O)O)C1CC=CC21` (stereo not drawn) the IC50 [6] was < 5 µM.

For `O=C(O)c1ccc2c(c1)C1C=CCC1C(C(=O)O)N2` (stereo not drawn), the fold change (FC) [1] was 0.23, the IC50 [6] was < 5 µM and the fold change (FC) [2] was 0.41. It also gave a fold change (FC) [3] of 0.08, a fold change (FC) [4] of 0.73 and an IC50 [7] of 6.6 µM. The IC50 [8] was 2.5 µM.

For `O=C(O)C1Nc2cc(-c3cccnc3)ccc2C2C=CCC12` (stereo not drawn), the IC50 [6] was < 5 µM.

Molecule `O=C(O)C1Nc2ccc(Br)cc2C2C=CCC12` (stereo not drawn) has a fold change (FC) [1] of 0.23, a fold change (FC) [2] of 0.41 and a fold change (FC) [3] of 0.08. It also gave a fold change (FC) [4] of 0.73.

`O=C(O)C1Nc2ccccc2C2C=CCC12` (stereo not drawn) showed a fold change (FC) [1] of 0.23, a fold change (FC) [2] of 0.41 and a fold change (FC) [3] of 0.08. For the same molecule, the fold change (FC) [4] was 0.73.

For `O=C(O)C1Nc2ccc(OC(F)(F)F)cc2C2C=CCC12` (stereo not drawn), the IC50 [6] was < 5 µM.

In the case of `O=C(O)c1cccc2c1NC(C(=O)O)C1CC=CC21` (stereo not drawn), the fold change (FC) [1] is reported as 0.23, the IC50 [6] is reported as < 5 µM and the fold change (FC) [2] is reported as 0.41. It also gave a fold change (FC) [3] of 0.08, a fold change (FC) [4] of 0.73 and an IC50 [8] of 2.5 µM.

In the case of `CC(=O)c1ccc2c(c1)C1C=CCC1C(C(=O)O)N2` (stereo not drawn), the fold change (FC) [1] is reported as 0.23, the IC50 [6] is reported as < 5 µM and the fold change (FC) [2] is reported as 0.41. For the same molecule, the IC50 [9] was 6 µM, the fold change (FC) [3] was 0.08 and the fold change (FC) [4] was 0.73.

In the case of `O=C(O)c1cccc2c1C1C=CCC1C(C(=O)O)N2` (stereo not drawn), the IC50 [6] is reported as < 5 µM.

In the case of `O=C(O)C1Nc2ccc(Cl)cc2C2C=CCC12` (stereo not drawn), the IC50 [8] is reported as 2.5 µM.

For `CCOC(=O)C1Nc2cccc(C(=O)O)c2C2C=CCC12` (stereo not drawn), the IC50 [6] was < 5 µM.

In the case of `O=C(O)C1Nc2ccc(Nc3ccccc3)cc2C2C=CCC12` (stereo not drawn), the IC50 [6] is reported as < 5 µM.

In the case of `COc1ccc2c(c1)C1C=CCC1C(C(=O)O)N2` (stereo not drawn), the IC50 [6] is reported as < 5 µM.

Molecule `O=C(O)c1ccc([N+](=O)[O-])c2c1N[C@@H](C(=O)O)[C@H]1CC=C[C@@H]21` has a Ki [10] of 17 µM.

In the case of `NC(=O)c1ccc2c(c1)C1C=CCC1C(C(=O)O)N2` (stereo not drawn), the IC50 [6] is reported as < 5 µM.

In the case of `CC(=O)Nc1ccc(OC(=O)c2cccc3c2NC(C(=O)O)C2CC=CC32)cc1` (stereo not drawn), the IC50 [6] is reported as < 5 µM.

With `O=C(O)C1Nc2ccc(F)cc2C2C=CCC12` (stereo not drawn) the IC50 [6] was < 5 µM.

With `CNc1ccc2c(c1)C1C=CCC1C(C(=O)O)N2` (stereo not drawn) the IC50 [6] was < 5 µM.

For `O=C(O)c1ccc2c(c1)NC(C(=O)O)C1CC=CC21` (stereo not drawn), the IC50 [6] was < 5 µM.

`O=C(O)c1ccc2c(c1)[C@@H]1C=CC[C@@H]1[C@H](C(=O)O)N2` showed a Ki [10] of 70 µM.

For `O=C(O)C1Nc2ccc(Oc3ccccc3)cc2C2C=CCC12` (stereo not drawn), the IC50 [11] was 2.4 µM.

In the case of `NC(=O)c1cccc2c1NC(C(=O)O)C1CC=CC21` (stereo not drawn), the IC50 [6] is reported as < 5 µM.

In the case of `Cc1ccc2c(c1)C1C=CCC1C(C(=O)O)N2` (stereo not drawn), the IC50 [6] is reported as < 5 µM.

In the case of `O=C(O)C1Nc2c(O)cccc2C2C=CCC12` (stereo not drawn), the fold change (FC) [1] is reported as 0.23, the fold change (FC) [2] is reported as 0.41 and the fold change (FC) [3] is reported as 0.08. It also gave a fold change (FC) [4] of 0.73.

`O=C(O)c1ccc2c(c1)[C@@H]1C=CC[C@@H]1[C@H](c1ccccn1)N2` showed an IC50 [12] of 17 µM.

In the case of `CC(=O)Nc1ccc2c(c1)NC(C(=O)O)C1CC=CC21` (stereo not drawn), the IC50 [6] is reported as < 5 µM.
